# Data reported in patent publication US20190076464A1, “CYTIDINE DEAMINASE INHIBITORS FOR THE TREATMENT OF PANCREATIC CANCER” (INSERM (OMSTOTIT NATIONAL DE LA SANTÉ ET DE LA RECHERCHE …, priority 2016, published 2019).
# Legend:
# [1] = test system: gemcitabine-resistant cells; details: reference 13; cited from earlier work
# [2] = test system: cancer cell proliferation; assay: Cancer cell proliferation, CDA targeting combined with metabolic inhibitor (FIG. 7); format: cell-based; details: in combination with CDA targeting
# Excerpt: This finding opens several other combinatory therapeutic options as glutaminase (CB-839, FIG. 7) and α-KG dehydrogenase (CPI-613, a lipoate analog, inhibits mitochondrial enzymes pyruvate dehydrogenase (PDH) and α-KG dehydrogenase in NCI-H460 cell line, disrupts tumor cell mitochondrial metabolism) inhibitors are being evaluated clinically for PDA subjects^53.
# [3] = test system: pancreatic cancer cells; assay: Tumor metabolism (NAD+/NADH ratio) under pharmacological inhibition of CDA (FIG. 6C); format: cell-based, human; details: CDA inhibitor alone, FIG. 6C (NAD+/NADH ratio)
# Excerpt: Accordingly, we measure the glycolytic flux in CDA-deficient cells and the expression of key proteins involved in glycolysis in response to CDA targeting.
# [4] = test system: pancreatic cancer cells; assay: Sensitization of pancreatic cancer cells to gemcitabine by pharmacological inhibition of CDA (FIG. 6A); format: cell-based, human; details: in vitro, CDA inhibitor combined with gemcitabine
# [5] = test system: pancreatic cancer cells; assay: Cell proliferation under pharmacological inhibition of CDA, without chemotherapy (FIG. 6B); format: cell-based, human; details: CDA inhibitor alone
# [6] = test system: PDA; details: in combination with gemcitabine, compared with gemcitabine alone, reference 6; cited from earlier work
smiles,measurement,setting,value
"O=C1NC(O)CCN1[C@@H]1O[C@H](CO)[C@@H](O)[C@H]1O (stereo partly shown) [THU, Tetrahydrouridine]",sensitivity to gemcitabine,[1],increases the sensitivity to gemcitabine
O=C(Cc1cccc(OC(F)(F)F)c1)Nc1ccc(CCCCc2nnc(NC(=O)Cc3ccccn3)s2)nn1 [CB839],cancer cell proliferation,[2],strongly inhibits cancer cell proliferation
"O=C1NCC=CCN1[C@@H]1O[C@H](CO)[C@@H](O)[C@H]1O [DR, 1,3-diazepinone riboside]",tumor metabolism,[3],fails to alter
same,sensitization to gemcitabine,[4],sensitizes pancreatic cancer cells to gemcitabine
same,cell proliferation,[5],fails to alter cell proliferation
C#Cc1cccc(Nc2ncnc3cc(OCCOC)c(OCCOC)cc23)c1 [Erlotinib],overall survival time,[6],only slightly increases overall survival time
O=CC[C@@H](O)[C@H](O)[C@H](O)CO [2-deoxy Glucose],cancer cell proliferation,[2],strongly inhibits cancer cell proliferation
